Laboratory results as given in patent publication US20250195511A1, “INDAZOLE DERIVATIVES USEFUL AS INHIBITORS OF NOD-LIKE RECEPTOR PROTEIN 3” (Merck Sharp & Dohme LLC, priority 2023, published 2025).

What follows are compounds tested on NLRP3 inflammasome (assay: NLRP3 inflammasome activation: ASC-SPECK formation in gramicidin-stimulated THP-1 cells). Details: Homo sapiens, THP-1, inhibition of ASC SPECK formation; PMA-treated human monocytic THP-1 cells, compound 1 h before 12.5 μg/ml gramicidin, 3-hour treatment.
Assay type: cell-based
From the text: Activation of the canonical NLRP3 inflammasome requires two steps, priming and activation. A priming signal such as a pathogen activated molecular patterns (PAMPs) or danger-activated molecular patterns (DAMPs) are recognized by Toll-like receptors leads to nuclear factor kappa B (NF-KB)-mediated signaling. […] The second step is activation which induces oligomerization of NLRP3 and subsequent assembly of NLRP3, apoptosis-associated speck-like protein containing a CARD (ASC), and procaspase-1 into an inflammasome complex. This triggers the transformation of procaspase-1 to caspase-1, and the production and secretion of mature IL-1β and IL-18 (Kim et al., J. Inflamm. 2015, 12, 41; Ozaki et al., J. Inflamm. Res. 2015, 8, 15-27; Rabeony et al., Eur. J. Immunol. 2015, 45, 2847). During inflammasome complex assembly, the oligomerization of NLRP3 triggers the nucleation of ASC and an event commonly referred to as “ASC SPECK” formation, as it is identified in the cell as a discrete puncta within the cell after staining and visualization of ASC using common immunocytochemical methods.
The ability of compounds to inhibit NLRP3 inflammasome activation was determined in vitro by monitoring formation of the ASC-SPECK in human monocytic THP-1 cells after stimulation. THP-1 cells (ATCC catalog #TIB-202) were maintained in complete growth media containing Roswell Park Memorial Institute RPMI (ATCC catalog #30-2001), 10% heat inactivated fetal bovine serum, 1× penicillin/streptomycin and 0.05 mM 2-mercaptoethanol. At the start of the assay, undifferentiated THP-1 cells were plated at a density of 20,000 cells per well in a 384-well plate (Poly-D-lysine coated Cell Carrier Ultra microplate, Perkin Elmer catalog #6057500) in complete growth media supplemented with 10 ng/ml phorbol 12-myristate 13-acetate (PMA; Sigma catalog #P8139), and then incubated overnight. The next day, media was replaced with assay media (RPMI (Gibco catalog #11875-093), 0.01% bovine serum albumin (BSA)). Compounds were serially diluted in DMSO and then added to wells one hour prior to the addition of 12.5 μg/ml Gramicidin (Enzo Lifescience, catalog #ALX-350-233-M005). All incubations were carried out at 37° C. (5% CO2/95% air). Following a 3-hour treatment with gramicidin, cells are fixed with 4% paraformaldehyde and stored at 4° C. until immunofluorescence staining.
Immunofluorescence staining: Anti-ASC antibody (MBL catalog #D086-3) was desalted and labeled with Alexa 488 antibody labeling kit (Thermo catalog #A20181) prior to use as described below. After fixation, the following steps were carried out at rt. Cells were first permeabilized with 0.3% polyethylene glycol tert-octylphenyl ether (Triton X-100) in phosphate-buffered saline (PBS) for 15 minutes and then incubated in blocking buffer containing 5% goat serum, 0.3% polyethylene glycol sorbitan monolaurate (Tween-20) and 0.03% sodium azide in PBS for 1 hour. Cells were stained with a mixture of ASC-Alexa 488 antibody (diluted 1:200 in blocking buffer) and nuclear stain DRAQ5 (1:5000 in blocking buffer, Thermo catalog #62251) in blocking buffer for 1 hour. Following a wash with 0.3% polyethylene glycol sorbitan monolaurate (Tween-20) in PBS, plates were imaged with an Opera Phenix High Content Screening System. The number of DRAQ5 positive cells containing ASC SPECKS were quantified in each well.
Data analysis: EC50 values were calculated by standard curve-fitting analysis using an internally developed program in TIBCO Spotfire software.

Row | SMILES | EC50 [µM]
1 | Cc1cc(C(F)(F)F)cc(O)c1-c1cnc2cn([C@H]3CC[C@@H](C#N)CC3)nc2n1 [Example 11, (1S,4S)-4-(6-(2-hydroxy-6-methyl-4-(trifluoromethyl)phenyl)-2H-pyrazolo[3,4-b]pyrazin-2-yl)cyclohexane-1-carbonitrile] | 1.5
2 | Cc1cc(C(F)(F)F)cc(O)c1-c1cnc2cn([C@H]3[C@@H]4COC[C@@H]43)nc2n1 [Example 10, 2-(2-((1R,5S,6R)-3-oxabicyclo[3.1.0]hexan-6-yl)-2H-pyrazolo[3,4-b]pyrazin-6-yl)-3-methyl-5-(trifluoromethyl)phenol] | 0.034
3 | Cc1cc(C(F)(F)F)cc(O)c1-c1cnc2cn([C@]34CCC[C@H]3OCC4)nc2n1 (mixture of isomers) [Example 21, 2-(2-((3aS,6aR and 3aR,6aS)-hexahydro-3aH-cyclopenta[b]furan-3a-yl)-2H-pyrazolo[3,4-b]pyrazin-6-yl)-3-methyl-5-(trifluoromethyl)phenol] | 0.814
4 | Cc1cc(C(F)(F)F)cc(O)c1-c1cnc2cn(C34CCC(O)(C3)C4)nc2n1 [Example 26, 4-[6-[2-hydroxy-6-methyl-4-(trifluoromethyl)phenyl]pyrazolo[3,4-b]pyrazin-2-yl]bicyclo[2.1.1]hexan-1-ol] | 0.051
5 | Cc1cc(C(F)(F)F)cc(O)c1-c1cnc2cn(C3CCCOC34CCC4)nc2n1 (racemic) [Example 22, (S and R)-2-(2-(5-oxaspiro[3.5]nonan-9-yl)-2H-pyrazolo[3,4-b]pyrazin-6-yl)-3-methyl-5-(trifluoromethyl)phenol] | 0.202
6 | Cc1cc(Cl)cc(O)c1-c1cnc2cn([C@H]3C[C@H](F)C3)nc2n1 [Example 55, 5-chloro-2-(2-((1R,3R)-3-fluorocyclobutyl)-2H-pyrazolo[3,4-b]pyrazin-6-yl)-3-methylphenol] | 0.027
7 | Cc1cc(C(F)(F)F)cc(O)c1-c1cnc2cn(C3CC34CCOCC4)nc2n1 (racemic) [Example 23, (S and R)-2-(2-(6-oxaspiro[2.5]octan-1-yl)-2H-pyrazolo[3,4-b]pyrazin-6-yl)-3-methyl-5-(trifluoromethyl)phenol] | 0.461
8 | Cc1cc(C(F)(F)F)cc(O)c1-c1cnc2cn([C@@H]3COCC[C@H]3O)nc2n1 [Example 34, (3R,4R)-3-[6-[2-hydroxy-6-methyl-4-(trifluoromethyl)phenyl]pyrazolo[3,4-b]pyrazin-2-yl]tetrahydropyran-4-ol] | 0.044

Same assay, conditions: inhibition of ASC SPECK formation; PMA-treated human monocytic THP-1 cells, compound 1 h before 12.5 μg/ml gramicidin, 3-hour treatment

Row | SMILES | EC50 [µM]
9 | Cc1cc(C(F)(F)F)cc(O)c1-c1cnc2cn(C3CCOCC34CC4)nc2n1 (single isomer, unassigned) [Example 100, (S or R)-2-(2-(5-oxaspiro[2.5]octan-8-yl)-2H-pyrazolo[3,4-b]pyrazin-6-yl)-3-methyl-5-(trifluoromethyl)phenol] | 0.169
10 | Cc1cc(C(F)(F)F)cc(O)c1-c1cnc2cn(C34CC3COC4(C)C)nc2n1 (single isomer, unassigned) [Example 77, 2-(2-((1S,5S or 1R,5R)-2,2-dimethyl-3-oxabicyclo[3.1.0]hexan-1-yl)-2H-pyrazolo[3,4-b]pyrazin-6-yl)-3-methyl-5-(trifluoromethyl)phenol] | 0.445
11 | Cc1cc(C(F)(F)F)cc(O)c1-c1cnc2cn(C3C4CS(=O)(=O)CC43)nc2n1 (single isomer, unassigned) [Example 53, (1R,5S,6S or 1R,5S,6R)-6-(6-(2-hydroxy-6-methyl-4-(trifluoromethyl)phenyl)-2H-pyrazolo[3,4-b]pyrazin-2-yl)-3-thiabicyclo[3.1.0]hexane 3,3-dioxide] | 0.981
12 | Cc1cc(C(F)(F)F)cc(O)c1-c1cnc2cn([C@H]3CCO[C@@H](C)C3)nc2n1 (single isomer, unassigned) [Example 93, 3-methyl-2-(2-((2S,4S or 2R,4R)-2-methyltetrahydro-2H-pyran-4-yl)-2H-pyrazolo[3,4-b]pyrazin-6-yl)-5-(trifluoromethyl)phenol] | 0.332
